Data reported in patent US20080221195A1, “1,2-DIARYLACETYLENE DERIVATIVES OF ACYLTRYPTOPHANOLS” (priority 2006, published 2008).

Molecular target: T1, human FSH receptor (Homo sapiens, UniProt P23945)
T1 construct: expressed in transfected cells; host or cells: CHO cells (hFSHR clone 16)
T1 sequence (P23945 18-695): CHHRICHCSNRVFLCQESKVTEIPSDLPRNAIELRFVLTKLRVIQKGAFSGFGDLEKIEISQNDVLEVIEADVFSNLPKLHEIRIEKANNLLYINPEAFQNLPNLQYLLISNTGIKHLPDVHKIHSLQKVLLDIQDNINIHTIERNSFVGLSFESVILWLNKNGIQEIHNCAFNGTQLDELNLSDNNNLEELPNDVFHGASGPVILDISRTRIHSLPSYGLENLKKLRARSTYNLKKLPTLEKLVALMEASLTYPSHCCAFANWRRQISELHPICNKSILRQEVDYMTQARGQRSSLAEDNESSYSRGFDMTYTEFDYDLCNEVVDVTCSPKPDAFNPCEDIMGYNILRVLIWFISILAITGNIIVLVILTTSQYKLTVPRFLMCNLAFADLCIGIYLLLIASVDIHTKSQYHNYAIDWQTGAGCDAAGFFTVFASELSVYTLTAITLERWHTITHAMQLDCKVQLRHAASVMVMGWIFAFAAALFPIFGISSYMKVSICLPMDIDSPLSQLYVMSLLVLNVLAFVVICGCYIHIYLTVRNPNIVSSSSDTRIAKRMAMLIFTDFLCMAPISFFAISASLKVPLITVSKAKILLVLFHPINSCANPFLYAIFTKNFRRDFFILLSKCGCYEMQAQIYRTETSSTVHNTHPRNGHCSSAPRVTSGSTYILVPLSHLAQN
Assay: HTRF assay for measuring cAMP in cells (FSH-antagonistic effect)
Type: cell-based
Details: hFSHR clone 16 cells (CHO cells stably transfected with the human FSH receptor), in the presence of 1e-9 mol/l hFSH, 37° C. for 2 h
Method: HTRF Assay for Measuring cAMP in Cells
The method is based on a competitive immunoassay between native cAMP, which has been produced by the cells, and cAMP which is labelled with cAMPD2 conjugate. The tracer binding was visualized by a monoclonal antibody, anti-cAMP labelled with cryptate [HTRF=homogeneous time-resolved fluorescence].
The specific signal is inversely proportional to the cAMP concentration of the samples employed.
The 665 nm/620 nm fluorescence ratio was evaluated.
Materials used: 96-well plates for the tissue culture, 96-well plates with black edge and black base (e.g. Fluotrac 600 from Greiner), 96-well plates for the substance dilutions of polypropylene and cAMP Femtomolar (4000 wells Kit, CIS Bio International # 62AM5PEJ).
Reagent used: BSA (bovine serum albumin) Fraction V protease-free, IBMX (3-isobutyl-1-methylxanthine), hFSH (human follicle stimulating hormone), Triton X-100 analytical grade, potassium fluoride analytical grade, G 418 (Geneticin) and Accutase.
Buffer 1 (washing and testing buffer) contained PBS, 1 mM CaCl2, 1 mM MgCl2, 0.2% glucose; 0.1% BSA, 1 mM IBMX.
Buffer 2 (2× lysis buffer) contained 1% Triton X-100 in PBS (without CaCl2 and MgCl2).
Buffer 3 (assay buffer) contained 50 mM potassium phosphate buffer (pH 7.0); 800 mM potassium fluoride; 0.2% BSA (always added fresh).
On day 1, the cells were seeded in 96-well plates (3×10^4 cells per well hFSHR clone 16 cells (CHO cells stably transfected with the human FSH receptor in 150 μl of medium). The next day, test substance dilutions were made up. For this purpose, all the substances were diluted in ice-cold buffer 1 (with or without hFSH), and the substance dilutions were placed on ice until applied to the cells. The cell supernatant was then aspirated off, and the cells were washed 2× with 200 μl of buffer 1. The cells were treated with 60 μl of the appropriate substance concentrations at 37° C. for 2 h. The cells were then lysed with 60 μl of buffer 2 (put onto the supernatant) (on a plate shaker at RT for 30 min). The test conjugates (cAMP-D2 and anti-cAMP cryptate, CIS Bio) were diluted in buffer 3 in accordance with the manufacturers' information. The actual mixture for measurement was pipetted into a black 96-well plate (in each case 15 μl of the cell lysate diluted with 35 μl of buffer 1; firstly 25 μl of cAMP-D2 conjugate were pipetted and, after 10 min, 25 μl of the anti-cAMP cryptate were added). This is followed by incubation at RT for 90 minutes. The measurement was carried out in a PheraStar (BMG).
Dose-effect curve (hFSH) for the human receptor: 1e-8, 3e-9, 1e-9, 3e-10, 1e-10, 3e-11, 1e-11, 3e-12 mol/l.
The test substances were employed in suitable dilutions in the absence (test for agonism) and in the presence of 1e-9 mol/l hFSH.
The values of the well ratio were averaged and then entered directly in SigmaPlot versus the concentrations. The maximum and minimum values were determined for each plate, and half the difference is to be regarded as IC50.

IC50 [nM] | Compound
150 | COc1ccc(C#Cc2ccc(OC(C)C)c(C(=O)N[C@@H](CO)Cc3c[nH]c4ccccc34)c2)cc1F [Example 30, 5-(3-Fluoro-4-methoxy-phenylethynyl)-N-[(R)-2-hydroxy-1-(1H-indol-3-ylmethyl)-ethyl]-2-isopropoxy-benzamide]
500 | Cc1cc(C)cc(C#Cc2ccc(OC(C)C)c(C(=O)N[C@@H](CO)Cc3c[nH]c4ccccc34)c2)c1 [Example 40, 5-(3,5-Dimethyl-phenylethynyl)-N-[(R)-1-hydroxymethyl-2-(1H-indol-3-yl)-ethyl]-2-isopropoxy-benzamide]
150 | CC(C)Oc1ccc(C#Cc2cncnc2)cc1C(=O)N[C@@H](CO)Cc1c[nH]c2ccccc12 [Example 46, N-[(R)-1-Hydroxymethyl-2-(1H-indol-3-yl)-ethyl]-2-isopropoxy-5-pyrimidin-5-ylethynyl-benzamide]
30 | Cc1ccc(C)c(C#Cc2ccc(OC(C)C)c(C(=O)N[C@@H](CO)Cc3c[nH]c4ccccc34)c2)c1 [Example 48, 5-(2,5-Dimethyl-phenylethynyl)-N-[(R)-1-hydroxymethyl-2-(1H-indol-3-yl)-ethyl]-2-isopropoxy-benzamide]
80 | CC(C)Oc1ccc(C#Cc2ccc3ccccc3c2)cc1C(=O)N[C@@H](CO)Cc1c[nH]c2ccccc12 [Example 52, N-[(R)-1-Hydroxymethyl-2-(1H-indol-3-yl)-ethyl]-2-isopropoxy-5-naphthalen-2-ylethynyl-benzamide]
2500 | CC(C)Oc1ccc(C#Cc2ccccc2CC(=O)O)cc1C(=O)N[C@@H](CO)Cc1c[nH]c2ccccc12 [Example 58, (2-{3-[(R)-1-Hydroxymethyl-2-(1H-indol-3-yl)-ethylcarbamoyl]-4-isopropoxy-phenylethynyl}-phenyl)-acetic acid]
10 | CC(C)Oc1ccc(C#Cc2cncc(C3=NNC(=O)C3)c2)cc1C(=O)N[C@@H](CO)Cc1c[nH]c2ccccc12 [Example 66, N—[(R)-1-Hydroxymethyl-2-(1H-indol-3-yl)-ethyl]-2-isopropoxy-5-[5-(5-oxo-4,5-dihydro-1H-pyrazol-3-yl)-pyridin-3-ylethynyl]-benzamide]
30 | CC(C)Oc1ccc(C#Cc2ccc3c(c2)C(=O)NCC3)cc1C(=O)N[C@@H](CO)Cc1c[nH]c2ccccc12 [Example 68, N-[(R)-1-Hydroxymethyl-2-(1H-indol-3-yl)-ethyl]-2-isopropoxy-5-(1-oxo-1,2,3,4-tetrahydro-isoquinolin-7-ylethynyl)-benzamide]
45 | CNC(=O)CCCc1ccc(C#Cc2ccc(OC(C)C)c(C(=O)N[C@@H](CO)Cc3c[nH]c4ccccc34)c2)cc1 [Example 70, N-[(R)-1-Hydroxymethyl-2-(1H-indol-3-yl)-ethyl]-2-isopropoxy-5-[4-(3-methylcarbamoyl-propyl)-phenylethynyl]-benzamide]
2500 | CNC(=O)c1ccc(C#Cc2cccc(C(=O)N[C@@H](CO)Cc3c[nH]c4ccccc34)c2)cc1 [Example 72, N-[(R)-1-Hydroxymethyl-2-(1H-indol-3-yl)-ethyl]-5-(4-methylcarbamoyl-phenylethynyl)-benzamide]
100 | CC(C)Oc1ccc(C#Cc2ccccc2)cc1C(=O)NC(CO)Cc1c[nH]c2cc(F)ccc12 (stereo not shown) [Example 75, N-[2-(6-Fluoro-1H-indol-3-yl)-1-hydroxymethyl-ethyl]-2-isopropoxy-5-phenylethynyl-benzamide]
3500 | CNC(=O)c1cccc(C#Cc2ccc(Cl)c(C(=O)N[C@@H](CO)Cc3c[nH]c4ccccc34)c2)c1 [Example 79, 2-Chloro-N-[(R)-2-hydroxy-1-(1H-indol-3-ylmethyl)-ethyl]-5-(3-methylcarbamoyl-phenylethynyl)-benzamide]
700 | CNC(=O)c1cccc(C#Cc2ccc(Cl)c(C(=O)NC(CO)Cc3c[nH]c4cc(F)ccc34)c2)c1 (stereo not shown) [Example 83, 2-Chloro-N-[2-(6-fluoro-1H-indol-3-yl)-1-hydroxymethyl-ethyl]-5-(3-methylcarbamoyl-phenylethynyl)-benzamide]
60 | CC(C)Oc1ccc(C#Cc2ccc(C(=O)O)o2)cc1C(=O)N[C@@H](CO)Cc1c[nH]c2ccccc12 [Example 88, 5-{3-[(R)-1-Hydroxymethyl-2-(1H-indol-3-yl)-ethylcarbamoyl]-4-isopropoxy-phenylethynyl}-furan-2-carboxylic acid]
80 | Cc1ccc(C#Cc2ccc(OC(C)C)c(C(=O)N[C@@H](CO)Cc3c[nH]c4ccccc34)c2)nc1 [Example 94, N-[(R)-1-Hydroxymethyl-2-(1H-indol-3-yl)-ethyl]-2-isopropoxy-5-(5-methyl-pyridin-2-ylethynyl)-benzamide]
15 | CC(C)Oc1ccc(C#Cc2cncc(C(N)=O)c2)cc1C(=O)N[C@@H](CO)Cc1c[nH]c2ccccc12 [Example 97, 5-{3-[(R)-1-Hydroxymethyl-2-(1H-indol-3-yl)-ethylcarbamoyl]-4-isopropoxy-phenylethynyl}-nicotinamide]
70 | CC(C)Oc1ccc(C#Cc2ccsc2)cc1C(=O)N[C@@H](CO)Cc1c[nH]c2ccccc12 [Example 100, N-[(R)-2-Hydroxy-1-(1H-indol-3-ylmethyl)-ethyl]-2-isopropoxy-5-thiophen-3-ylethynyl-benzamide]
1300 | CC(C)Oc1ccc(C#Cc2ccc(OCCN(C)C)cc2)cc1C(=O)N[C@@H](CO)Cc1c[nH]c2ccccc12 [Example 103, 5-[4-(2-Dimethylamino-ethoxy)-phenylethynyl]-N-[(R)-1-hydroxymethyl-2-(1H-indol-3-yl)-ethyl]-2-isopropoxy-benzamide]
4000 | CC(C)Oc1ccc(C#Cc2ccc(C3(O)CCNCC3)cc2)cc1C(=O)N[C@@H](CO)Cc1c[nH]c2ccccc12 [Example 106, N-[(R)-1-Hydroxymethyl-2-(1H-indol-3-yl)-ethyl]-5-[4-(4-hydroxy-piperidin-4-yl)-phenylethynyl]-2-isopropoxy-benzamide]
350 | CC(C)Oc1ccc(C#Cc2ccc(C#N)cc2)cc1C(=O)N[C@@H](CO)Cc1c[nH]c2ccccc12 [Example 110, 5-(4-Cyano-phenylethynyl)-N-[(R)-1-hydroxymethyl-2-(1H-indol-3-yl)-ethyl]-2-isopropoxy-benzamide]
2000 | CC(C)Oc1ccc(C#Cc2ccc(-c3ccccc3)cc2)cc1C(=O)N[C@@H](CO)Cc1c[nH]c2ccccc12 [Example 111, 5-Biphenyl-4-ylethynyl-N-[(R)-1-hydroxymethyl-2-(1H-indol-3-yl)-ethyl]-2-isopropoxy-benzamide]
25 | CC(C)Oc1ccc(C#Cc2ccc3[nH]ncc3c2)cc1C(=O)N[C@@H](CO)Cc1c[nH]c2ccccc12 [Example 113, N-[(R)-2-Hydroxy-1-(1H-indol-3-ylmethyl)-ethyl]-5-(1H-indazol-5-ylethynyl)-2-isopropoxy-benzamide]
